From PMC12040169 (PLOS Biology, 2025)

Experiment: in vitro
Settings: human, hela cells, % viability

| Structure (SMILES) | viability at 28.5 h, 10 µM | viability at 28.5 h, 10 µM (bulk resorufin, single well) |
| --- | --- | --- |
| Cc1ccc(S(=O)(=O)NC(=O)NCCCCNC(=O)NS(=O)(=O)c2ccc(C)cc2)cc1 [CBK296078] | 102% | – |
| O=C(O)Cc1csc(NC(=O)c2ccc(N3CCCCC3)c([N+](=O)[O-])c2)n1 [CBK296081] | 84.7% | – |
| Cc1cc(NC(c2cccc([N+](=O)[O-])c2)c2ccc3cccnc3c2O)no1 (stereo not drawn) [CBK296083] | 89.1% | – |
| O=C(O)C=Cc1cn(-c2ccccc2)nc1-c1ccc(-c2ccc([N+](=O)[O-])cc2)o1 [CBK296088] | 105% | – |
| CCC(C)C(NC(=O)c1ccccc1NC(=O)c1ccc(OC)cc1)C(=O)O (stereo not drawn) [CBK296090] | 91.4% | – |
| CN(C)c1ccc(C=Nc2ccc(NC(=O)CCC(=O)O)cc2)cc1 [CBK296091] | 92% | – |
| COc1ccc2cc(-c3cc(C(=O)O)c4ccccc4n3)ccc2c1 [CBK296093] | 88.4% | – |
| O=C(O)c1ccc(N2C(=O)C(=Cc3c4ccccc4cc4ccccc34)SC2=S)cc1 [CBK296101] | 85.9% | – |
| Cc1ccc(S(=O)(=O)NC(=O)Nc2cccc(NC(=O)NS(=O)(=O)c3ccc(C)cc3)n2)cc1 [CBK296102] | 103% | – |
| O=C(O)C=CC(=O)Nc1ccc(SC(F)(F)C(F)(F)C(F)(F)F)cc1 [CBK296104] | – | 107% |
| CCOc1cc(N2CCOCC2)c(OCC)cc1NC(=O)CSc1ccccc1C(=O)O [CBK296107] | 97.1% | – |
| Cc1noc(NS(=O)(=O)c2ccc(NC(=O)c3cc(-c4ccccc4Cl)nc4ccccc34)cc2)c1C [CBK296108] | 80.6% | – |
| Cc1ccc(C2=NN(c3ccccc3)C(c3cn(CCC(=O)O)nc3-c3ccccc3)C2)cc1 (stereo not drawn) [CBK296110] | 107% | – |
| CCCCc1ccc(NS(=O)(=O)c2ccc(C)c(C(=O)O)c2)cc1 [CBK296111] | 116% | – |
| COc1ccc(-c2nn(-c3ccccc3)cc2C(=O)Nc2ccc(C(=O)O)cc2)cc1OC [CBK296112] | 95% | – |
| COc1ccc(-c2cc(C(=O)OCc3ccccn3)c3ccccc3n2)cc1 [CBK296114] | 108% | – |
| O=C(COC(=O)c1cc(-c2ccco2)nc2ccccc12)Nc1ccc(F)c(F)c1F [CBK296115] | 84.6% | – |
| COc1ccc(-c2csc(NC(=O)NS(=O)(=O)c3ccc(C)cc3)n2)cc1 [CBK296117] | 88% | – |
| COc1ccc(-c2nn(-c3ccccc3)cc2C(=O)Nc2ccc(C(=O)O)cc2)cc1 [CBK296121] | 106% | – |
| O=C(O)c1ccc(NC(=O)c2cn(-c3ccccc3)nc2-c2cccnc2)cc1 [CBK296122] | 102% | – |
| COc1ccc(C2=CC(c3ccc(C(F)(F)F)cc3)n3nnnc3N2)cc1OC (stereo not drawn) [CBK296131] | 117% | – |

| Structure (SMILES) | viability at 28.5 h, 10 µM | viability at 28.5 h, 10 µM (bulk resorufin, single well) |
| --- | --- | --- |
| COc1ccccc1N1CCN(C(=O)CC2(CC(=O)O)CCCC2)CC1 [CBK296137] | 105% | – |
| O=C(O)CSCC(=O)N(Cc1ccccc1)c1nc(-c2ccccc2)c(-c2ccccc2)s1 [CBK296138] | 97.5% | – |
| COc1ccccc1NC(=O)C1=C(C)NC(SCC(=O)Nc2ccc(C(=O)O)cc2)=C(C#N)C1c1cccs1 (stereo not drawn) [CBK296139] | 102% | – |
| CC(=O)NS(=O)(=O)c1ccc(NC(=O)CCSc2ccc(C)cc2)cc1 [CBK296141] | 88.5% | – |
| CN(C(=O)c1ccc2c(c1)NC(=O)CS2)c1ccccc1 [CBK296612] | 105% | – |
| CCN(CC)Cc1cc([N+](=O)[O-])cc2c1OCOC2 [CBK296613] | 113% | – |
| CC(=O)c1ccc(NC(=O)C(C)SCc2ccc(C)cc2)cc1 (stereo not drawn) [CBK296616] | 96.7% | – |
| CC(=O)Nc1ccccc1OCc1cc(-c2ccccc2)on1 [CBK296617] | 99.8% | – |
| Cc1noc(C(C)C)c1C(=O)NC(C)c1cccc(Br)c1 (stereo not drawn) [CBK296618] | 92.8% | – |
| CC(NC(=O)c1ccc(-n2cccc2)cc1)c1ccccn1 (stereo not drawn) [CBK296619] | 91.4% | – |
| COc1cc(OC)c(NS(=O)(=O)c2ccc(C(=O)O)cc2)cc1Cl [CBK296620] | 97.5% | – |
| COc1ccc2c(-c3ccccc3)cc(=O)n(CCS(=O)(=O)Oc3ccccc3)c2c1 [CBK296621] | 84.6% | – |
| O=C(c1ccc(OC(F)(F)F)cc1)N1CCN(c2nnnn2-c2ccccc2)CC1 [CBK296622] | 93.5% | – |
| CCOC(=O)c1sc(NS(=O)(=O)c2ccc(C(=O)O)cc2)cc1C [CBK296623] | 100% | – |
| COc1ccc(COC(=O)C2CC(=O)N(Cc3ccc(C)cc3)C2)cc1 (stereo not drawn) [CBK296624] | 89% | – |
| Cc1nc2c(cc(OCC(O)COc3ccc(C#N)cc3)c3ccsc32)s1 (stereo not drawn) [CBK296632] | 84.6% | – |
| Cc1cccc(-c2n[nH]c(=S)n2CC(=O)Nc2cccc(C#Cc3ccccn3)c2)c1 [CBK296633] | 92.8% | – |
| COc1cccc(CC(=O)Nc2nc(Cc3n[nH]c(=S)n3C)cs2)c1 [CBK296634] | 98.5% | – |
| COc1cc(NC(=O)CC2(CC(=O)O)CCCCC2)ccc1N1CCCC1=O [CBK296637] | 105% | – |
| Cc1ccc(S(=O)(=O)Nc2cccc(NC(=O)c3ccco3)c2)cc1C(=O)O [CBK296638] | 105% | – |
| O=C(Nc1ccccc1C(=O)NCCCc1nc2ccccc2[nH]1)c1cccs1 [CBK296641] | 107% | – |

| Structure (SMILES) | viability at 28.5 h, 10 µM | viability at 28.5 h, 10 µM (bulk resorufin, single well) |
| --- | --- | --- |
| CN(CCCn1c(=S)[nH]c2ccccc2c1=O)C1CCCCC1 [CBK296642] | 103% | – |
| Cc1oc2nc(CSc3ccc4ccccc4c3)[nH]c(=O)c2c1C(=O)O [CBK296645] | 92.4% | – |
| CC(C)CCCC(C)NC(=O)COc1cc(C(=O)O)cc(C(=O)O)c1 (stereo not drawn) [CBK296646] | 86.8% | – |
| Cc1nc2ccc(C(=O)N3CCN(C(=O)c4ccc(Cl)cc4)CC3)cc2nc1C [CBK296647] | 85% | – |
| CCOc1ccc(N2C(=O)CC(Nc3cc(C(=O)O)ccc3C)C2=O)cc1 (stereo not drawn) [CBK296651] | 97.1% | – |
| CC(C)(C)C(=O)NCCCC(=O)Nc1nc2ccc(Oc3ccccc3)cc2s1 [CBK296652] | 97.9% | – |
| CCCCn1c(SCC(O)COCc2ccc(OC)c(OC)c2)n[nH]c1=O (stereo not drawn) [CBK296653] | 99.3% | – |
| Cc1cc(CN2CCN(c3nc(-c4ccccc4)nc4ccccc34)CC2)no1 [CBK296654] | 87.7% | – |
| COc1ccc(NC(=O)CCSCCC(=O)O)cc1S(=O)(=O)N1CCCCC1 [CBK296655] | 80.3% | – |
| CC(=O)Nc1ccc(NC(=O)CCn2c(-c3cccc(C)c3)n[nH]c2=S)cc1Cl [CBK296656] | 99.3% | – |
| Cc1nc(C(=O)N(C)C(C)c2cc3ccccc3o2)nn1-c1ccc(F)cc1 (stereo not drawn) [CBK296657] | 108% | – |
| O=C(O)c1ccc(S(=O)(=O)Nc2ccc(OC3CCCC3)cc2)cc1 [CBK296658] | 110% | – |
| O=C(CCNS(=O)(=O)c1ccccc1)OCc1ccc([N+](=O)[O-])cc1 [CBK296659] | 94.4% | – |
| CC(=O)c1ccc(C(=O)N(C)Cc2ccc(F)cc2)s1 [CBK296660] | 99.8% | – |
| CC12CCC(=O)N1C(C(=O)NCCNc1ccc(S(C)(=O)=O)cc1[N+](=O)[O-])CS2 (stereo not drawn) [CBK296661] | 87.6% | – |
| O=C(Nc1cccc(-c2nnco2)c1)C1CCCCC1 [CBK296662] | 86.2% | – |
| CCN(CC)C(=O)c1cccc(NS(=O)(=O)c2ccc(C)c(C(=O)O)c2)c1 [CBK296665] | 111% | – |
| COc1cc(Cl)c(C)cc1NC(=O)C1CC=CCC1C(=O)O (stereo not drawn) [CBK296667] | 94.1% | – |
| CC(C)(Oc1ccc(Cl)cc1)C(=O)Nc1ccc(CN2C(=O)CNC2=O)cc1 [CBK296668] | 103% | – |
| COc1ccccc1NS(=O)(=O)c1ccc(C)c(C(=O)NCC(c2ccco2)N2CCCCC2)c1 (stereo not drawn) [CBK296669] | 81.3% | – |
| COC(=O)CNC(=O)C1CC(=O)N(c2ccccc2Br)C1 (stereo not drawn) [CBK296672] | 97.1% | – |

| Structure (SMILES) | viability at 28.5 h, 10 µM | viability at 28.5 h, 10 µM (bulk resorufin, single well) |
| --- | --- | --- |
| O=C(CCc1ccc(S(=O)(=O)NC2CC2)cc1)N1CCCC1c1ccncc1 (stereo not drawn) [CBK296673] | 106% | – |
| CCC(C)(C)C1CCC(NC(=O)CSCCC(=O)O)CC1 (stereo not drawn) [CBK296674] | 107% | – |
| Cc1ccc2nc(C)cc(C(=O)OCc3ccc(C(N)=O)cc3)c2c1 [CBK296676] | 97.8% | – |
| CN(Cc1ccccc1NCCn1c(=O)oc2ccccc21)C1CCCCC1 [CBK296678] | 78.1% | – |
| CC(C)Cn1c(SCC(=O)Nc2ccc(OC(F)F)cc2)nc(O)cc1=O [CBK296679] | 91.2% | – |
| COC(=O)c1ccc(NS(=O)(=O)c2ccc(C)c(C(=O)O)c2)c(C)c1 [CBK296684] | 105% | – |
| Cc1cc(C(=O)Nc2nc(Cc3n[nH]c(=S)n3C)cs2)sc1C [CBK296687] | 68.5% | – |
| Cc1ccc(C(=O)O)cc1S(=O)(=O)Nc1ccc(-c2cn3ccsc3n2)cc1 [CBK296688] | 85.2% | – |
| Cc1nc(NC(=O)Cc2c(C)nn(CC(C)C)c2C)sc1-c1n[nH]c(=S)n1C [CBK296691] | 88.6% | – |
| CN(Cc1ccccc1N1CCOCC1)C(=O)c1ccc2ncsc2c1 [CBK296692] | 108% | – |
| CCC(C)c1ccc(NC(C)C(=O)Nc2ccc3[nH]c(=O)[nH]c3c2)cc1 (stereo not drawn) [CBK296694] | 92.1% | – |
| CN(C)CC(=O)N1CCN(c2ccc(C(=O)c3ccccc3)cc2[N+](=O)[O-])CC1 [CBK296699] | 85.4% | – |
| CCn1c(=O)c(C=Cc2cc(OC)c(O)c(OC)c2)nc2cc(C(=O)O)ccc21 [CBK296701] | 85.1% | – |
| CC(C)(CC(=O)O)CC(=O)Nc1cc(S(=O)(=O)N2CCCC2)ccc1Cl [CBK296702] | 95.4% | – |
| CCOc1ccc(C2=NN(C(=O)CCC(=O)O)C(c3ccc4nccnc4c3)C2)cc1 (stereo not drawn) [CBK296703] | 103% | – |
| CCOc1cc2c(cc1NS(=O)(=O)c1cc(C(=O)O)ccc1C)OC(C)C2 (stereo not drawn) [CBK296711] | 101% | – |
| O=C(Nc1cccc(-c2nnn[nH]2)c1)c1ccc(C2CCCCC2)cc1 [CBK296712] | 114% | – |
| O=C(CSCCOc1ccc(Br)cc1)Nc1ccc2c(c1)OCCO2 [CBK296714] | 108% | – |
| O=C(Nc1cccc2ncccc12)c1cccc(Oc2ccccc2)c1 [CBK296716] | 91.7% | – |
| NC(=O)C1CCN(C(=O)c2cc(O)nc3ccccc23)CC1 [CBK296719] | 98.2% | – |
| COc1cc(C=CC(=O)O)ccc1OCc1cn2cc(Cl)ccc2n1 [CBK296722] | 99.1% | – |
